Patent US20220339187A1, “ANTIMICROBIAL PEPTIDE-SELENIUM NANOPARTICLES” (The University of Melbourne, priority 2019, published 2022)

Assays:
E. coli ATCC 25922 [1] = experiment: Membrane potential change test (BacLight, DiOC2(3)); format: cell-based, Escherichia coli; conditions: 6.25 or 12.5 μg/ml (CCCP 5 μM)
Procedure: Membrane potential change was measured using a BacLight Bacterial Membrane Potential Kit (Invitrogen). The bacterial strain methicillin-sensitive S. aureus (MSSA) ATCC 29213, E. faecalis ATCC 29212, E. coli ATCC 25922 were cultured in MHB at 37° C. 50 μL of different concentrations of Se NPs, Se NP-ε-PL or pure ε-PL in PBS solution was added into each well of 96-well microplates. 50 μL MHB with 2.5×10^6 cells/mL bacteria was then added into each well. 50 μL MHB with 2.5×10^6 cells/mL bacteria was added to 50 μL PBS to act as untreated control. Carbonyl cyanide 3-chlorophenylhydrazone (CCCP) was added to untreated control at a final concentration of 5 μM to act as fully depolarized control. 3,3′-Diethyloxacarbocyanine Iodide (DiOC2(3)) was added to all wells at a final concentration of […]. […] The untreated (polarized) and CCCP-treated (fully depolarized) controls were used to determine the percentage of depolarized cells. Two independent experiments were done for this test, and two technical replicates were adopted for each independent experiment.

[2] = test system: methicillin-sensitive S. aureus ATCC 29213; experiment: Resistance development test; format: cell-based, Staphylococcus aureus; conditions: S. aureus cultured at MBC50 concentration
Procedure: (§1) First, one S. aureus or E. coli colony from an agar plate was inoculated into 20 mL MHB and cultured overnight at 37° C. The bacterial suspensions were diluted to 2.5×10^6 bacteria/mL. […] After every 48 h, CFU assays were performed on these bacteria, and the MBCs were calculated. The change in MBCs over the generations was plotted.

E. coli ATCC 25922 [3] = experiment: Resistance development test; format: cell-based, Escherichia coli; conditions: E. coli cultured at MBC50 concentration; 312 generations tested
Procedure: as §1

With `N#CC(C#N)=NNc1cccc(Cl)c1` [CCCP, Carbonyl cyanide 3-chlorophenylhydrazone] the “depolarisation of cell membrane” value (E. coli ATCC 25922 [1]) was “minimal activity”.
In the case of `NC[C@H]1O[C@H](O[C@H]2[C@H](O)[C@@H](O[C@H]3O[C@H](CO)[C@@H](O)[C@H](N)[C@H]3O)[C@H](N)C[C@@H]2N)[C@H](O)[C@@H](O)[C@@H]1O` [kanamycin], the “generations after which resistance started to develop (rise of MBC)” value [2] is reported as 44 generations and the “generations after which resistance started to develop (rise of MBC)” value (E. coli ATCC 25922 [3]) is reported as 52 generations.
